Values joined by “and” are separate entries in the source; they are usually repeats but may differ in a detail not shown here. Equal values may be shown once. “Also recorded” adds a separate entry of the source. Residues, ends and D or L forms follow the SMILES beside them.
Legend:
[1] = biological target: T1, PDZ2/3 tandem domain of PTPN13 (Mus musculus, UniProt Q64512); test: NMR titration of PDZ2/3 tandem domain with APC peptide, chemical shift perturbations and exchange regime; type: binding
T1 construct: pGEX-2 T-PDZ2/3 (PTPN13 residues 1347–1580); GST (N, cleaved yes); made in house; host or cells: E. coli BL21(DE3)
T1 sequence (Q64512 1347-1580): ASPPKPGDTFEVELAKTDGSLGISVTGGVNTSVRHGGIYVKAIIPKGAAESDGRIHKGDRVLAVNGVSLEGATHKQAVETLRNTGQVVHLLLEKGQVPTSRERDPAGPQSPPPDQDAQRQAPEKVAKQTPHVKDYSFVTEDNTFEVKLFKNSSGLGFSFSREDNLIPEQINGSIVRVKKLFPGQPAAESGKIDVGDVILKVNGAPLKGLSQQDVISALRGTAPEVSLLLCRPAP
Experimental: (§1) We have applied multidimensional heteronuclear NMR spectroscopy in order to elucidate the binding affinities of the PDZ2 single domain and the tandem domain PDZ2/3 of PTPN13 for the chemically synthesized C-terminal dodecapeptides derived from APC and PRK2. The binding characteristics were analyzed in a titration series of the dodecamer peptides and ^15N isotopically-enriched PDZ2 and PDZ2/3 samples, respectively, and by monitoring the NMR chemical shift perturbations in a series of 2D ^1H-^15N heteronuclear single quantum coherence (HSQC) spectra with increasing ligand concentrations. It could be shown that all peptides bind to the canonical binding groove of PDZ domains (Figs. 1, 2, 3 and 4).
(§2) NMR spectra were acquired at 298 K on Bruker DRX 600 and AVANCE III HD 700 spectrometers. Typically, NMR samples contained 0.1–0.5 mM uniformly ^13C and/or ^15N-enriched protein in PBS buffer at pH 7.4 including 10% D2O [42–44]. All data were processed with either NMRPipe and analyzed with NMR View or TopSpin (www.bruker.com). The backbone assignments were obtained from the BioMagResBank accession numbers 15,199 (PDZ2/3) and 5131 (PDZ2). The interaction between PDZ2 and PDZ3 was analyzed upon titrating PDZ3 to isotopically ^15N-enriched PDZ2 at a molar ratio of 1:1 at 298 K by recording 2D ^1H-^15N-HSQC NMR spectra. […] The differences in backbone ^1H and ^15N NMR chemical shifts were monitored via 2D ^1H-^15N-HSQC NMR spectra. The weighted ^1HN and ^15N chemical shift differences were calculated according to the following equation [45, 47]: […]
Averaged dissociation constants for the different complexes were calculated from least-squares fitting of the NMR chemical shift perturbations observed for several amino acids as a function of ligand concentration. NMR chemical shift perturbation data were analysed with the ORIGIN software package (www.originlab.com) as previously published. The error for KD values was calculated from the individual fit of several significant chemical shift perturbations found for the amide resonances located in and/or next to the canonical PDZ binding cleft. […]

PDZ2 domain of PTPN13 [2] = biological target: T2, PDZ2 domain of PTPN13 (Mus musculus, UniProt Q64512); test: NMR titration (2D 1H-15N-HSQC chemical shift perturbation) of 15N-enriched single PDZ2 domain with C-terminal dodecapeptides; type: binding; conditions: for NMR chemical shift perturbations of PDZ2 on peptide binding: 2D 1H-15N-HSQC, 298 K, pH 7.4
T2 construct: pGEX-2 T-PDZ2 (PTPN13 residues 1347–1450); GST (N, cleaved yes); made in house; host or cells: E. coli BL21(DE3)
T2 sequence (Q64512 1347-1450): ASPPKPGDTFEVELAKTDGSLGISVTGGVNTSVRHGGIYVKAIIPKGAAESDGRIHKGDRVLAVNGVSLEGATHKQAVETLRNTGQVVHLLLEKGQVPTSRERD
Experimental: as §1
Bacterial expression plasmids pGEX-2 T-PDZ2 (PTPN13 residues 1347–1450), pGEX-2 T-PDZ3 (PTPN13 residues 1474–1580), and pGEX-2 T-PDZ2/3 (PTPN13 residues 1347–1580) were constructed by sub-cloning of PCR-generated PTPN13 cDNA fragments in-frame into appropriate pGEX-2 T vectors.
as §2, with “The backbone assignments were obtained from the BioMagResBank accession numbers 15,199 (PDZ2/3) and 5131 (PDZ2).” left out
Averaged dissociation constants for the different complexes were calculated from least-squares fitting of the NMR chemical shift perturbations observed for several amino acids as a function of ligand concentration. NMR chemical shift perturbation data were analysed with the ORIGIN software package (www.originlab.com) as previously published. […]

PDZ3 domain of PTPN13 = conditions: single PDZ3 domain; NMR titration, 298 K, pH 7.4, PBS, DTT added; ref [12]; read-out: dissociation constant KD, PDZ3; cited from earlier work
From the text: The observed differences for APC binding to PDZ2 versus tandem PDZ2/3 are not large yet still considerable.

[3] = biological target: T3, PDZ3 in PDZ2/3 tandem domain of PTPN13 (Mus musculus, UniProt Q64512); test: NMR titration of PDZ2/3 tandem domain, PDZ3 resonances (PDZ3 in PDZ2/3); type: binding; conditions: data not shown
T3 construct: pGEX-2 T-PDZ2/3 (PTPN13 residues 1347–1580); GST (N, cleaved yes); made in house; host or cells: E. coli BL21(DE3)
T3 sequence (Q64512 1347-1580): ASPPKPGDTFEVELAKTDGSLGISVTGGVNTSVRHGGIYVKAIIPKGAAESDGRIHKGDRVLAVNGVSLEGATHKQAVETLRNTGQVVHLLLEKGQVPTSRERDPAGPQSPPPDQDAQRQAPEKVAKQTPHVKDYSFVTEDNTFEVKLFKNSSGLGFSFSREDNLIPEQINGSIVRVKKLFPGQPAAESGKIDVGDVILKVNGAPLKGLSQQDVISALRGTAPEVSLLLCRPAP
Experimental: as §1, with “4). […]” for “4).”
as §2, with “Typically, NMR samples contained 0.1–0.5 mM uniformly ^13C and/or ^15N-enriched protein in PBS buffer at pH 7.4 including 10% D2O [42–44].” left out, “The backbone assignments were obtained from the BioMagResBank accession numbers 15,199 (PDZ2/3) and 5131 (PDZ2).” left out

[4] = system: single PDZ2 domain of PTPN13; conditions: previous study; class I (APC) and III (RIL) ligands; ref [21]; cited from earlier work
From the text: Based on the results from the NMR chemical shift perturbation analysis and HADDOCK molecular docking calculations we conclude, that an allosteric effect modulates the APC-binding characteristics of PDZ2 from PTPN13 (Fig. 7). Although peptides rather than the corresponding full-length proteins have been used here, numerous studies have shown before that the last four to six carboxy-terminal amino acids are essential for ligand binding to PDZ domains.

[5] = biological target: T4, PDZ2 in PDZ2/3 tandem domain of PTPN13 (Mus musculus, UniProt Q64512); test: NMR titration of PDZ2/3 tandem domain, PDZ2 resonances (PDZ2 in PDZ2/3); type: binding; conditions: final stoichiometric ratio APC:PDZ2/3 30:1
T4 construct: pGEX-2 T-PDZ2/3 (PTPN13 residues 1347–1580); GST (N, cleaved yes); made in house; host or cells: E. coli BL21(DE3)
T4 sequence (Q64512 1347-1580): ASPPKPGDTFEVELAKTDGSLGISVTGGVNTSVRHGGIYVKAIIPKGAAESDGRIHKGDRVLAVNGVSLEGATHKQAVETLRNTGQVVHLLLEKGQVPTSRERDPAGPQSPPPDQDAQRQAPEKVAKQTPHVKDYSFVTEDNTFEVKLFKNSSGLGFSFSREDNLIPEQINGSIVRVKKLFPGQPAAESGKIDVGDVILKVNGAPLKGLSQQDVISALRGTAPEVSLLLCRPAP
Experimental: as §1, with “4). […]” for “4).”
as §2, with “Typically, NMR samples contained 0.1–0.5 mM uniformly ^13C and/or ^15N-enriched protein in PBS buffer at pH 7.4 including 10% D2O [42–44].” left out, “The backbone assignments were obtained from the BioMagResBank accession numbers 15,199 (PDZ2/3) and 5131 (PDZ2).” left out

APC peptide = biological target: T5, APC peptide (Homo sapiens); test: NMR titration
T5 chain: KRHSGSYLVTSV

PRK2 peptide = biological target: T6, PRK2 peptide (Homo sapiens); test: NMR titration
T6 chain: MFRDFDYIADWC

PDZ2 domain of PTPN13 [6] = biological target: T2, PDZ2 domain of PTPN13; test: NMR titration of single PDZ3 domain to 15N-enriched PDZ2 domain; type: binding; conditions: 15N-PDZ2, molar ratio 1:1, 2D 1H-15N-HSQC, 298 K; stoichiometry limited by solubility
Experimental: Thus, we titrated the single PDZ3 domain (residues 1491–1579) to the ^15N-enriched PDZ2 domain (residues 1357–1442) and monitored their interaction by recording a series of 2D ^1H-^15N-HSQC NMR spectra (Fig. 4a). […] However, the final maximal stoichiometry of PDZ2 and PDZ3 was approx. 1:1 due to solubility issues.
NMR spectra were acquired at 298 K on Bruker DRX 600 and AVANCE III HD 700 spectrometers. Typically, NMR samples contained 0.1–0.5 mM uniformly ^13C and/or ^15N-enriched protein in PBS buffer at pH 7.4 including 10% D2O [42–44]. All data were processed with either NMRPipe and analyzed with NMR View or TopSpin (www.bruker.com). The backbone assignments were obtained from the BioMagResBank accession numbers 15,199 (PDZ2/3) and 5131 (PDZ2). The interaction between PDZ2 and PDZ3 was analyzed upon titrating PDZ3 to isotopically ^15N-enriched PDZ2 at a molar ratio of 1:1 at 298 K by recording 2D ^1H-^15N-HSQC NMR spectra. In this study, the numbering scheme of the assigned chemical shifts for PDZ2 (5131) and PDZ23 (15199) has been shifted by one residue so that, for example, T30 according to the BMRB entry 5131 now equals T31. […] The differences in backbone ^1H and ^15N NMR chemical shifts were monitored via 2D ^1H-^15N-HSQC NMR spectra. The weighted ^1HN and ^15N chemical shift differences were calculated according to the following equation [45, 47]: […]

CC(=O)N[C@@H](CCCCN)C(=O)N[C@@H](CCCNC(=N)N)C(=O)N[C@@H](Cc1c[nH]cn1)C(=O)N[C@@H](CO)C(=O)NCC(=O)N[C@@H](CO)C(=O)N[C@@H](Cc1ccc(O)cc1)C(=O)N[C@@H](CC(C)C)C(=O)N[C@H](C(=O)N[C@H](C(=O)N[C@@H](CO)C(=O)N[C@H](C(=O)O)C(C)C)[C@@H](C)O)C(C)C [APC]
NMR chemical shift perturbations of PDZ2/3 tandem on titration ([1]; 2D 1H-15N-HSQC, 298 K, pH 7.4): NMR chemical shift perturbations were observed for G12, L19, T31, G63, H94, L95, L97 of PDZ2 and K152 as well as S231 of PDZ3 in the tandem domain
NMR exchange regime of binding to tandem PDZ2/3 ([1]; 298 K, pH 7.4): fast exchange
chemical shift differences between single PDZ2-APC complex and PDZ2 in PDZ2/3-APC complex ([1]; APC peptide at molar ratio 1:30, single PDZ2 vs PDZ2 in PDZ2/3): Major NMR chemical shift perturbations were observed on the back of the PDZ2 domain, i.e. opposite to the canonical PDZ binding cleft, mainly for EF (H94, L95, L97) and for EA (L19)
NMR chemical shift perturbations of PDZ2 on peptide binding (PDZ2 domain of PTPN13 [2]): leads to NMR chemical shift differences observed along intra-domain signal pathways as previously predicted
peptide-induced dimerisation of PDZ2 (PDZ2 domain of PTPN13 [2]; comparison of free and APC-bound NMR spectra of individual PDZ2): exclude an APC-induced dimerisation of PDZ2
Kd (PDZ3 domain of PTPN13): ~721 µM and 721 µM
saturation of PDZ3 at end of titration [3]: PDZ3 was not fully saturated at the end of the titration
binding to single PDZ2 domain [4]: able to bind
saturation of PDZ2 resonances at end of titration [5]: no further chemical shift changes were observed for amide resonances originating from the PDZ2 domain

CC[C@H](C)[C@H](NC(=O)[C@H](Cc1ccc(O)cc1)NC(=O)[C@H](CC(=O)O)NC(=O)[C@H](Cc1ccccc1)NC(=O)[C@H](CC(=O)O)NC(=O)[C@H](CCCNC(=N)N)NC(=O)[C@H](Cc1ccccc1)NC(=O)[C@H](CCSC)NC(C)=O)C(=O)N[C@@H](C)C(=O)N[C@@H](CC(=O)O)C(=O)N[C@@H](Cc1c[nH]c2ccccc12)C(=O)N[C@@H](CS)C(=O)O [PRK2] (Ac-MFRDFDYIADWC-OH; C-terminus assumed)
NMR chemical shift perturbations of PDZ2 on peptide binding (PDZ2 domain of PTPN13 [2]): NMR chemical shift differences were observed for the canonical ligand binding groove of PDZ2 including G23, S24, which are also involved in peptide recognition, and S28, and G31; also recorded: Additional NMR chemical shift perturbations were observed for the β-strands EA and EF of PDZ2, located opposite to its canonical peptide binding groove
Kd (PDZ3 domain of PTPN13): 318 ± 47 µM

B1: PTPN13 (PDZ3 in PDZ2/3 tandem) PDZ3 in PDZ2/3 (protein)
chain: EVKLFKNSSGLGFSFSREDNLIPEQINASIVRVKKLFPGQPAAESGKIDVGDVILKVNGASLKGLSQQEVISALRGTAPEVFLLLCRP
Kd (APC peptide): 2570 µM

B2: PTPN13 (PDZ2 in PDZ2/3 tandem) PDZ2 in PDZ2/3 (protein)
chain: EVELAKNDNSLGISVTGGVNTSVRHGGIYVKAVIPQGAAESDGRIHKGDRVLAVNGVSLEGATHKQAVETLRNTGQVVHLLLEKG
Kd (APC peptide): 211 µM

B3: PTPN13 PDZ2 (protein)
chain: DIFEVELAKNDNSLGISVTGGVNTSVRHGGIYVKAVIPQGAAESDGRIHKGDRVLAVNGVSLEGATHKQAVETLRNTGQVVHLLLEKGQSP
Kd (PRK2 peptide): 661 µM
Kd (APC peptide): 286 µM

B4: PDZ3: single PDZ3 domain (residues 1491–1579) of PTPN13 (protein, UniProt Q12923 1491-1579, looked up, fragment)
chain: YSFVTEENTFEVKLFKNSSGLGFSFSREDNLIPEQINASIVRVKKLFPGQPAAESGKIDVGDVILKVNGASLKGLSQQEVISALRGTAP
modifications: PDZ3 domain
notes: single PDZ3 domain (residues 1491–1579) of PTPN13
chemical shift differences of PDZ2 upon titration with PDZ3 (PDZ2 domain of PTPN13 [6]): Only very minor chemical shift differences could be observed, if at all; also recorded: only yielded minor chemical shift differences; also recorded: Only very minor, if at all, chemical shift differences could be observed
